Experimental data taken from ChEMBL document CHEMBL4831503, “Design, synthesis, in vitro and in vivo anti-respiratory syncytial virus (RSV) activity of novel oxizine fused benzimidazole derivatives” (Eur J Med Chem, 2021).
The source made the active and inactive calls. No cut-off for these calls is given here.

What was measured:
[1] = Cytotoxicity against human HEp-2 cells assessed as reduction in cell viability measured after 60 hrs by MTT assay; assay type: cell-based
[2] = tested on: Respiratory syncytial virus; test: Antiviral activity against Respiratory syncytial virus infected in human HEp-2 cells assessed as reduction in viral infection incubated for 60 hrs by MTT assay; assay type: functional, organism-based; conditions: dose 3.125-50 µM
[3] = tested on: Respiratory syncytial virus; test: Antiviral activity against Respiratory syncytial virus Long infected in human A549 cells assessed as reduction in viral infection incubated for 60 hrs by MTT assay; assay type: functional, organism-based; conditions: A549, 60 h
Human orthopneumovirus [4] = test: Antiviral activity against Respiratory syncytial virus A2 infected in human HEp-2 cells assessed as reduction in viral infection incubated for 60 hrs by MTT assay; assay type: functional, organism-based; conditions: A2, HEp-2, 60 h
Human orthopneumovirus [5] = test: Antiviral activity against Respiratory syncytial virus A2 infected in human A549 cells assessed as reduction in viral infection incubated for 60 hrs by MTT assay; assay type: functional, organism-based; conditions: A2, A549, 60 h
Human orthopneumovirus [6] = test: Antiviral activity against Respiratory syncytial virus A2 infected in human HEp-2 cells assessed as reduction in viral infection up to 50 uM treated 2 hpi measured after 60 hrs by MTT assay; assay type: functional, organism-based; conditions: dose microM <=50, time 60.0 hrs
[7] = tested on: Respiratory syncytial virus; test: Antiviral activity against Respiratory syncytial virus infected in human HEp-2 cells assessed as inhibition of viral replication at 25 uM treated up to 14 hpi and measured after 60 hrs by MTT assay; assay type: functional, organism-based
[8] = tested on: Respiratory syncytial virus; test: Inhibition of RSV induced apoptosis in human HEp-2 cells assessed as early apoptotic cells at 25 uM measured after 60 hrs by Annexin V-FITC/PI staining based flow cytometry analysis (reference value: 10.3%); assay type: functional; parameters: scale not given: the % may be the effect or the level left
HEp-2 [9] = test: Induction of apoptosis in human HEp-2 cells assessed as late apoptotic cells at 25 uM measured after 60 hrs by Annexin V-FITC/PI staining based flow cytometry analysis (reference value: 1.6%); assay type: functional
[10] = tested on: Respiratory syncytial virus; test: Inhibition of RSV induced apoptosis in human HEp-2 cells assessed as reduction in cleaved caspase-3 expression measured after 60 hrs by Western blot analysis; assay type: functional, organism-based
[11] = tested on: Respiratory syncytial virus; test: Inhibition of RSV induced apoptosis in human HEp-2 cells assessed as reversal of virus induced increase in Bax/Bcl-2 ratio at 25 to 50 uM measured after 36 hrs by Western blot analysis; assay type: functional, organism-based; conditions: dose 25-50 µM
HEp-2 [12] = test: Inhibition of RSV induced autophagy flux in RSV-infected infected human HEP-2 cells by measuring p62 expression at 25 to 50 uM measured after 24 hrs by Western blot analysis; assay type: functional, cell-based; conditions: Respiratory syncytial virus, dose 25-50 µM
[13] = tested on: Respiratory syncytial virus; test: Antiviral activity against RSV infected in human HEp-2 cells assessed as decrease in virus induced RIG-1 gene expression measured after 48 hrs by RT-PCR analysis; assay type: functional, organism-based
[14] = tested on: Respiratory syncytial virus; test: Antiviral activity against RSV infected in human HEp-2 cells assessed as decrease in virus induced TLR-3 gene expression measured after 48 hrs by RT-PCR analysis; assay type: functional, organism-based
[15] = tested on: Respiratory syncytial virus; test: Antiviral activity against RSV infected in human HEp-2 cells assessed as decrease in virus induced IRF3 gene expression measured after 48 hrs by RT-PCR analysis; assay type: functional, organism-based
[16] = tested on: Respiratory syncytial virus; test: Antiviral activity against RSV infected in human HEp-2 cells assessed as downregulation of NF-kappaB expression at 25 to 50 uM treated 48 hpi and measured after 48 hrs by Western blot analysis; assay type: functional, organism-based; conditions: dose 25-50 µM
[17] = tested on: Respiratory syncytial virus; test: Antiviral activity against RSV infected in human HEp-2 cells assessed as downregulation of RIG-1 expression at 25 to 50 uM treated 48 hpi and measured after 48 hrs by Western blot analysis; assay type: functional, organism-based; conditions: dose 25-50 µM
[18] = tested on: Respiratory syncytial virus; test: Antiviral activity against RSV Long infected in BALB/c mouse assessed as reduction in lung tissue damage by measuring lung index at 25 to 100 mg/kg/day measured after 2 days of virus infection; assay type: functional, organism-based; conditions: dose 25-100 mg/kg/day, time 2.0 day
[19] = tested on: Respiratory syncytial virus; test: Antiviral activity against RSV Long infected in BALB/c mouse assessed as inhibition of alveolar infiltrates accumulation at 25 to 100 mg/kg/day observed on day 6 after infection by H and E staining based microscopic analysis; assay type: functional, organism-based; conditions: dose 25-100 mg/kg/day, time 6.0 day
[20] = tested on: Respiratory syncytial virus; test: Antiviral activity against RSV Long infected in BALB/c mouse assessed as improvement in inflammatory infiltration of lung tissue at 25 mg/kg/day observed on day 6 after infection by H and E staining based microscopic analysis; assay type: functional, organism-based; conditions: time 6.0 day
[21] = tested on: Respiratory syncytial virus; test: Antiviral activity against RSV Long infected in BALB/c mouse assessed as lung edema at 25 mg/kg/day observed on day 6 after infection by H and E staining based microscopic analysis; assay type: functional, organism-based; conditions: time 6.0 day
[22] = tested on: Respiratory syncytial virus; test: Antiviral activity against RSV infected in BALB/c mouse assessed as inhibition of viral replication by measuring RSV-M gene expression in lung after 2 to 6 days post infection by RT-PCR analysis; assay type: functional, organism-based; conditions: time 2-6 day
[23] = tested on: Respiratory syncytial virus; test: Antiviral activity against RSV infected in BALB/c mouse assessed as downregulation of IRF3 expression in lung tissue infected with RSV at 25 to 100 mg/kg/day measured after 2 to 4 days post infection by RT-PCR analysis; assay type: functional, organism-based; conditions: dose 25-100 mg/kg/day, time 2-4 day
[24] = tested on: Respiratory syncytial virus; test: Antiviral activity against RSV infected in BALB/c mouse assessed as downregulation of TLR3 expression in lung tissue infected with RSV at 25 to 100 mg/kg/day measured after 2 to 6 days post infection by RT-PCR analysis; assay type: functional, organism-based; conditions: dose 25-100 mg/kg/day, time 2-6 day
[25] = Selectivity index, ratio of CC50 for human HEp-2 cells to EC50 for Respiratory syncytial virus A2 infected in human HEp-2 cells; assay type: toxicity, cell-based; conditions: read-out: Selectivity Index

Cc1c(Br)cc2nc3n(c2c1Br)[C@H]1OC[C@@H](O)[C@H]1OC3
CC50 at 60 h [1]: 250 µM | Activity [2]: Dose-Dependent Effect | EC50 [3]: 13.3 µM | EC50 (Human orthopneumovirus [4]): 12.8 µM | EC50 (Human orthopneumovirus [5]): 13.2 µM | Activity (Human orthopneumovirus [6]): Active | Activity [7]: Active | Activity [8]: 12% | Activity (HEp-2 [9]): 2.4% | inhibition [10]: Active | inhibition [11]: Active | Activity (HEp-2 [12]): Active | Activity [13]: Dose-Dependent Effect | Activity [14]: Dose-Dependent Effect | Activity [15]: Dose-Dependent Effect | Activity [16]: Active | Activity [17]: Active | Activity [18]: Active | Activity [19]: Active | Activity [20]: Active | Activity [21]: Active | Activity [22]: Dose-Dependent Effect | Activity [23]: Active | Activity [24]: Active | selectivity ratio [25]: 19.6
